Legend:
[1] = target: T1, Dual specificity tyrosine-phosphorylation-regulated kinase 1A (Homo sapiens, UniProt Q13627); assay: Inhibition of human full length recombinant DYRK1A assessed as remaining activity using RRRFRPASPLRGPP as substrate at 100 nM by [gamma-32P]ATP binding based scintillation counting based analysis relative to control
[2] = target: T2, Dual specificity protein kinase CLK1 (Homo sapiens, UniProt P49759); assay: Inhibition of human 130-end recombinant CLK1 assessed as remaining activity using ERMRPRKRQGSVR as substrate at 100 nM by [gamma-32P]ATP binding based scintillation counting based analysis relative to control
Target sequence in this assay (P49759 whole entry, looked up): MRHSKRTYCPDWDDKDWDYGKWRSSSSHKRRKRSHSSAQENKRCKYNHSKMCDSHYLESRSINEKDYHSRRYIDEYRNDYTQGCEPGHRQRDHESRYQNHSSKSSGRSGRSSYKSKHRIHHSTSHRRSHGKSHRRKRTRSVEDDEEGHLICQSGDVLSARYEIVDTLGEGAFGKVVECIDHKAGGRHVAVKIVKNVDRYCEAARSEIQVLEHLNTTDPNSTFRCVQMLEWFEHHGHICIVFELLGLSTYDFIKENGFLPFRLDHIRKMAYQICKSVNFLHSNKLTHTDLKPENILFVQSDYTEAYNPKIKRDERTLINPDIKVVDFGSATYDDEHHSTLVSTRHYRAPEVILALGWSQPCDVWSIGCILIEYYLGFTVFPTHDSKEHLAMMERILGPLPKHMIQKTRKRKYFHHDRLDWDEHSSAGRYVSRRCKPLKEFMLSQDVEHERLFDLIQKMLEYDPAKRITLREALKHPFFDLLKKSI

[3] = Metabolic stability in human liver microsomes assessed as half life at 10 uM incubated for 5 mins in the presence of NADPH-generating system by LC-MS/MS analysis; type: ADME, Microsome
[4] = Metabolic stability in human liver microsomes assessed as clearance at 10 uM incubated for 5 mins in the presence of NADPH-generating system by LC-MS/MS analysis; type: ADME, Microsome
[5] = target: T2, Dual specificity protein kinase CLK1; assay: Inhibition of human 130-end recombinant CLK1 assessed as remaining activity using ERMRPRKRQGSVR as substrate by [gamma-32P]ATP binding based scintillation counting based analysis
Target sequence in this assay (P49759 whole entry): as the sequence (P49759 whole entry, looked up) above

[6] = target: T1, Dual specificity tyrosine-phosphorylation-regulated kinase 1A; assay: Inhibition of human full length recombinant DYRK1A assessed as remaining activity using RRRFRPASPLRGPP as substrate by [gamma-32P]ATP binding based scintillation counting based analysis
Homo sapiens = species on record: Homo sapiens; assay: Selectivity index, ratio of IC50 for inhibition of human full length recombinant DYRK1A to IC50 for inhibition of human 130-end recombinant CLK1

Row | Compound | Activity [1] [%] | Activity [2] [%] | half-life at 10 µM [3] [min] | CLH [4] [mL/min/g] | IC50 [5] [nM] | IC50 [6] [nM] | Selectivity Index (Homo sapiens)
1 | COc1cncc(-c2c[nH]c3ncc(NC(=O)c4ccc(Cl)cc4OC)cc23)c1 | 95 | 8 | 101 | 15 | 5 | 3500 | 700
2 | FC(F)(F)c1cccc(CNc2cnc3[nH]cc(-c4cccnc4)c3c2)c1 | 96 | 18 | – | – | 45 | 689 | 15.3
3 | Fc1cc(F)cc(CNc2cnc3[nH]cc(-c4cc5ccccc5s4)c3c2)c1 | 108 | 65 | – | – | 252 | 2210 | –
4 | COc1ccc(-c2cnc3ccc(NCc4ccc(F)cc4)cn23)cc1 | 110 | 91 | – | – | – | – | –
5 | O=C(Nc1cnc2[nH]cc(-c3cncc(F)c3)c2c1)c1ccco1 | 88 | 64 | – | – | 389 | 3010 | –
6 | COc1ccc(-c2cnc3ccc(NCc4ccc(N(C)C)cc4)cn23)cc1 | 101 | 103 | – | – | – | – | –
7 | O=C(Nc1cnc2[nH]cc(-c3cccnc3)c2c1)c1ccc(F)cc1 | 90 | 30 | – | – | 31 | 2250 | 72.6
8 | COc1cncc(-c2c[nH]c3ncc(NCc4cc(F)cc(F)c4)cc23)c1 | 81 | 9 | 32.1 | 88.7 | 16 | 1320 | 82.7
9 | COc1ccc(-c2cnc3ccc(NC4CCCC4)cn23)cc1 | 126 | 99 | – | – | – | – | –
10 | O=C(Nc1cnc2[nH]cc(-c3cccnc3)c2c1)c1ccc(C(F)(F)F)c(F)c1 | 87 | 45 | – | – | 89 | 3650 | 41
11 | CCCc1ccc(-c2c[nH]c3ncc(NCc4cc(F)cc(F)c4)cc23)cc1 | 111 | 85 | – | – | – | – | –
12 | COc1cncc(-c2c[nH]c3ncc(NCc4cccc(F)c4)cc23)c1 | 89 | 2 | 19.5 | 80.4 | 17 | 2030 | 119
13 | O=C(Nc1cnc2[nH]cc(-c3cncc(F)c3)c2c1)c1ccc(F)cc1 | 83 | 37 | > 120 | < 12 | 64 | 2900 | 45.3
14 | Nc1cccc(-c2c[nH]c3ncc(NCc4cc(F)cc(F)c4)cc23)c1 | 88 | 28 | – | – | 66 | 389 | 5.9
15 | CCN(CC)c1ccc(CNc2cnc3[nH]cc(-c4cccnc4)c3c2)cc1 | 98 | 33 | – | – | 70 | 1560 | 22.4
16 | Fc1cccc(CNc2cnc3[nH]cc(-c4cccnc4)c3c2)c1 | 98 | 4 | – | – | 15 | 475 | 31.6
17 | c1cncc(-c2c[nH]c3ncc(NCc4ccc(N5CCOCC5)cc4)cc23)c1 | 83 | 28 | – | – | 46 | 1700 | 36.9
18 | Fc1cc(F)cc(CNc2cnc3[nH]cc(-c4ccc5ccccc5c4)c3c2)c1 | 106 | 80 | – | – | 476 | > 5000 | –

Row | Compound | Activity [1] [%] | Activity [2] [%] | half-life at 10 µM [3] [min] | CLH [4] [mL/min/g] | IC50 [5] [nM] | IC50 [6] [nM] | Selectivity Index (Homo sapiens)
19 | CC(C)(C)c1cccc(CNc2cnc3[nH]cc(-c4cccnc4)c3c2)c1 | 103 | 27 | – | – | 45 | 988 | 21.9
20 | CN1CCN(c2ccc(CNc3cnc4[nH]cc(-c5cncc(F)c5)c4c3)cc2)CC1 | 99 | 19 | 17.5 | 79.2 | 42 | 5970 | 142
21 | Fc1cccc(/C=N/c2cnc3[nH]cc(-c4cncc(F)c4)c3c2)c1 | 74 | 61 | – | – | 454 | 653 | –
22 | COc1cc(Cl)ccc1C(=O)Nc1cnc2[nH]cc(-c3cncc(F)c3)c2c1 | 92 | 20 | > 120 | < 12 | 66 | 3990 | 60.5
23 | CC(C)c1cccc(CNc2cnc3[nH]cc(-c4cccnc4)c3c2)c1 | 108 | 16 | – | – | 23 | 2390 | 117
24 | Nc1ccc(-c2c[nH]c3ncc(NCc4cc(F)cc(F)c4)cc23)cc1 | 101 | 36 | – | – | 89 | 561 | 6.3
25 | Fc1cc(F)cc(CNc2cnc3[nH]cc(-c4cccnc4)c3c2)c1 | 91 | 12 | – | – | 18 | 288 | 16
26 | COc1ccc(-c2cnc3ccc(NCc4cc(F)cc(F)c4)cn23)cc1 | 91 | 105 | – | – | 569 | 465 | 0.8
27 | CN1CCN(c2ccc(CNc3cnc4[nH]cc(-c5cccnc5)c4c3)cc2)CC1 | 85 | 9 | – | – | 13 | 1750 | 135
28 | Fc1cc(F)cc(CNc2cnc3[nH]cc(-c4ccc(C(F)(F)F)cc4)c3c2)c1 | 108 | 80 | – | – | 458 | 765 | 1.7
29 | O=S(=O)(Nc1cnc2[nH]cc(-c3cncc(F)c3)c2c1)c1ccc(F)cc1 | 94 | 70 | – | – | 667 | 3660 | –
30 | O=C(Nc1cc(C(F)(F)F)cc(C(F)(F)F)c1)Nc1cnc2[nH]cc(-c3cncc(F)c3)c2c1 | 106 | 88 | – | – | 1870 | 5680 | –
31 | Fc1cc(F)cc(CNc2cnc3[nH]cc(C4=CCCCC4)c3c2)c1 | 99 | 74 | – | – | 324 | 2460 | –
32 | NC(=O)c1cccc(-c2c[nH]c3ncc(NCc4cc(F)cc(F)c4)cc23)c1 | 105 | 89 | – | – | 762 | > 5000 | –
33 | Fc1ccc(/C=N/c2cnc3[nH]cc(-c4cncc(F)c4)c3c2)cc1 | 86 | 70 | – | – | 510 | 1350 | –
34 | Nc1ncc(-c2c[nH]c3ncc(NCc4cc(F)cc(F)c4)cc23)cn1 | 102 | 26 | – | – | 75 | 590 | 7.8
35 | COc1ccc(-c2c[nH]c3ncc(NCc4cc(F)cc(F)c4)cc23)cc1 | 40 | 3 | – | – | 15 | 97 | 6.5
36 | COc1cc(Cl)ccc1C(=O)Nc1cnc2[nH]cc(-c3cccnc3)c2c1 | 84 | 17 | – | – | 25 | 2040 | 81.4
